In brackets after ≈: the same amount, converted by molar mass.
Tests used:
[1] = Mouse pharmacokinetic studies (intravenous and oral); type: in vivo; settings: for AUC0–24: 24 h
Experimental: 5. Method for PK studies:
In Vivo Pharmacokinetic Studies. Compounds 1, 2 and 3 were administered intravenously at 1 mg/kg (1 ml/kg) in Dimethyl acetamide 25%v/v, ethanol 15%v/v, propylene glycol 10%v/v, 2 pyrrolidone 25%v/v, PW 25%v/v in fed animal, or orally at 10 mg/kg (10 ml/kg) in Hydroxyethylcellulose 1% w/v/polysorbate 80 0.25% v/v/Antifoam 1510-US 0.05% v/v/PW (probe sonicate), in fasted animals, respectively. Additional study was conducted for compound 2 wherein the animals were dosed 1-aminobenzotriazole (100 mpk) intraperitoneally one hour prior to dosing compound 2 either intravenously (fed animals) at 1 mg/kg or orally (fasted animals) at 10 mg/kg. Three animals were dosed per study arm.
Serial blood samples were collected at 0.08, 0.25, 0.75, 2, 4, 8, 24 for intravenous and 0.25, 0.5, 1, 2, 4, 8, 24 for oral administration. The blood was collected via a tail snip directly into a 20-μL EDTA-coated capillary and immediately spotted onto a Whatman DMPK-C dried blood sample (DBS) card and analysed using LC-MS/MS, as described previously.^7 Noncompartmental pharmacokinetic parameters were calculated using Watson version 7.4 (Thermo Scientific, Waltham, MA).

[2] = physchem
[3] = Mouse microsomal stability; type: in vitro ADME; settings: mouse, microsomes; for Mouse microsome (% metabolized in 30 min): 0.5 h, 2 μM
Experimental: 4. Method for microsomal stability:
To determine microsomal turnover, test compounds were incubated (2 μM) with liver microsomes in the presence of NADPH, and loss of parent molecule was measured by LC-MS after 30 min.

[4] = in vitro; type: in vitro ADME; settings: mouse, plasma
Excerpt: Fraction unbound in mouse plasma:^8

Compound	AUC,u0–24 ([1]; in vivo, iv, 1 mg/kg) [ng·h/mL]	CL,u ([1]; in vivo, iv, 1 mg/kg) [mL/min/kg]	Cl ([1]; in vivo, iv, 1 mg/kg) [mL/min/kg]	Vdss ([1]; in vivo, iv, 1 mg/kg) [L/kg]	Cmax ([1]; in vivo, po, 10 mg/kg) [ng/mL]	Cmax,u ([1]; in vivo, po, 10 mg/kg) [ng/mL]	Tmax ([1]; in vivo, po, 10 mg/kg) [h]	AUC(0-t) at 24 h ([1]; in vivo, po, 10 mg/kg, AUC0–24) [ng·h/mL]	t1/2 ([1]; intravenous 1 mg/kg) [h]	solubility ([2]; pH 7.4) [µg/mL]	CLint scaled at 2 μM [3] [mL/min/kg]	Mouse microsome (% metabolized in 30 min) [3] [%]	fraction unbound at 4.5 h, 1 µM [4]	other results
c1csc(-c2nnc(Cc3cccc4ccccc34)o2)c1 [Compound 1]	32	1727	19	0.9	19	0.2	2.75	31	1.2	< 1	3310	99	0.011	AUC(0-t) ([1]; in vivo, iv, 1 mg/kg, AUC0–24): 2900 ng·h/mL
CN(Cc1nnc(-c2ccco2)o1)Cc1c(F)cccc1Cl.O=C(O)/C=C\C(=O)O [Compound 2 maleate salt]														Aqueous solubility at pH 6 (pH 6): 0.687 mg/mL; Aqueous solubility at pH 7.4 (pH 7.4): 0.717 mg/mL
CN(Cc1nnc(-c2ccco2)o1)Cc1c(F)cccc1Cl [Compound 2]	37	455	56	1.1	31	3.8	0.25		0.3	77 (≈ 239 µM)	1350	99	0.123	AUC0–24 ([1]; in vivo, iv, 1 mg/kg): 300 ng·h/mL; Increase of oral exposure when co-administered with ABT ([1]; in vivo, po, 10 mg/kg): > 10 fold; AUC0–24 ([1]; in vivo, po, 10 mg/kg): 48 ng·h/mL; half-life ([1]; whole blood, intravenous 1 mg/kg, co-administered with ABT (100 mg/kg, 1 h pre-dose)): 1.7 h; solubility ([2]; pH 6): 49 µg/mL (≈ 152 µM)
CC1CCc2ccccc2N1Cc1nc(-c2ccsc2)no1 (centres unmarked) [Compound 3]	6	2733	41	6.3	9	0.1	0.25	10	2.9	5 (≈ 16.1 µM)	1910	65		AUC(0-t) at 24 h ([1]; in vivo, iv, 1 mg/kg, AUC0–24): 430 ng·h/mL; fraction unbound [4]: < 0.015
